# Patent US12643912B2, “Macrocyclic compounds, a process for their preparation and pharmaceutical compositions containing them” (LES LABORATOIRES SERVIER, priority 2020, dated 2026)
# Where two headings read alike, the source gives them in different places.
# Experiments:
# [1] = tested on: Nrf2 (Keap1-NRF2 nuclear translocation); assay: U2OS translocation assay (PathHunter U2OS Keap1-NRF2 Nuclear Translocation Cell Line); format: cell-based
# Method in brief: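 Enzyme-fragment complementation read-out: luminescence after 60 min of detection reagent at room temperature, following a 3 h, 37° C compound exposure of engineered U2OS Keap1-NRF2 translocation cells (1% FBS medium). Signal scaled from 1% DMSO basal to 10 μM andrographolide maximum.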
# Keap1 (A321-C624) (h) = molecular target: T1, Keap1 (A321-C624) (h) (Homo sapiens, UniProt Q14145); assay: Surface Plasmon Resonance binding assay to Kelch domain of KEAP1; details: Biacore T200, 25° C., immobilized His-Thromb-KEAP1(A321-C624), single cycle kinetics, KD=kd/ka from 1:1 fit; read-out: Keap1 (A321-C624) (h) direct/SPR (KD)
# T1 construct: His-Thromb-KEAP1(A321-C624) acquired from Novalix (batch PU-P01) was immobilized covalently by amine coupling; His tag (N); thrombin cleavage site (Thromb) (N); purchased Novalix batch PU-P01
# T1 sequence (Q14145 321-624): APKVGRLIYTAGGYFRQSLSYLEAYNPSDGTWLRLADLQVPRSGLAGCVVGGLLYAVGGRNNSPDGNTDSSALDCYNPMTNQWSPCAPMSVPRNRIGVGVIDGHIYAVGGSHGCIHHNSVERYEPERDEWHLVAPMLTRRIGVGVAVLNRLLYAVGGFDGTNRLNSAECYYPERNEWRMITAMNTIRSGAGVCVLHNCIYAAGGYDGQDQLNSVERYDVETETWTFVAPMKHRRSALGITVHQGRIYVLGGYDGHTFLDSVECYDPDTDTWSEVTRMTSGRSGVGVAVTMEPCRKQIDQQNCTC
# Experimental: EXAMPLE 85: SURFACE PLASMON RESONANCE
# Binding assay to Kelch domain of KEAP1 was performed by Surface Plasmon Resonance (SPR) on a Biacore T200 (GE Healthcare) at 25° C. using CM5 chip. His-Thromb-KEAP1(A321-C624) acquired from Novalix (batch PU-P01) was immobilized covalently by amine coupling using standard wizard protocol, at a concentration of 20 μg/mL in sodium acetate pH 5.5. The ligand was captured until 1250 RU was reached. Amine blank is used as the reference flow cell. Binding of analyte to the ligand was monitored in real time with associations of 180 seconds and a dissociation of 720 seconds. Association (ka) and dissociation (kd) rates were fitted with a simple 1:1 kinetic interaction model using Biacore T200 Evaluation Software (GE Healthcare). The equilibrium constant (KD=kd/ka) was calculated from these fitted parameters. […] The Biacore binding assay was performed with a flowrate of 50 μL/min using a running buffer of 10 mM HEPES (pH 7.4), 150 mM NaCl, 3 mM EDTA, 1 mM TCEP, 0.05% P20,5% DMSO. Double subtraction was used by subtracting both reference flow cell and previous blank cycle (with running buffer). Solvent correction was applied to correct DMSO bulk effect.
# [2] = Homo sapiens, U2OS, 3 h, read-out: CELLULAR U2OS EC50 (nM), U2OS Keap1-NRF2 nuclear translocation cells, 3 h incubation, luminescence, normalized between 1% DMSO and 10 μM andrographolide
# [3] = read-out: CELLULAR U2OS EC50, U2OS Keap1-NRF2 nuclear translocation cells, 3 h incubation, luminescence, normalized between 1% DMSO and 10 μM andrographolide
Kd (Keap1 (A321-C624) (h)) [nM],Structure (SMILES),"EC50 [1, 2] [nM]","EC50 [1, 3] [nM]"
35.2,"Cc1ccc2cc1CN1Cc3cc(ccc3OS1(=O)=O)OCCCn1nnc3c(C)c(ccc31)C2CC(=O)O (racemic) [Example 2, [4,30-Dimethyl-26,26-dioxo-20,25-dioxa-26λ^6-thia-1,14,15,16-tetraazahexacyclo[19.5.3.1^3,70.1^9,130.0^12,160.0^24,28]hentriaconta-3(31),4,6,9(30),10,12,14,21,23,28-decaen-8-yl]acetic acid]",830,–
3.97,"Cc1ccc2cc1CN1Cc3cc(ccc3OS1(=O)=O)OCCCCCn1nnc3c(C)c(ccc31)C2CC(=O)O (single isomer, unassigned) [Example 1b, [4,32-dimethyl-28,28-dioxo-22,27-dioxa-28λ^6-thia-1,14,15,16-tetraazahexacyclo[21.5.3.1^3,70.1^9,130.0^12,160.0^26,30]tritriaconta-3(33),4,6,9(32),10,12,14,23,25,30-decaen-8-yl]acetic acid]",–,735
62.2,"COc1cc2cc(c1)C(CC(=O)O)c1ccc3c(nnn3CCCCOc3ccc4c(c3)CN(C2)S(=O)(=O)O4)c1C (single isomer, unassigned) [Example 8a, [5-Methoxy-31-methyl-27,27-dioxo-21,26-dioxa-27λ^6-thia-1,14,15,16-tetraazahexacyclo[20.5.3.1^3,70.1^9,130.0^12,160.0^25,29]dotriaconta-3(32),4,6,9(31),10,12,14,22,24,29-decaen-8-yl]acetic acid]",986,–
12.4,"COc1cc2cc(c1)C(CC(=O)O)c1ccc3c(nnn3CCCCOc3ccc4c(c3)CN(C2)S(=O)(=O)O4)c1C (single isomer, unassigned) [Example 8b, [5-Methoxy-31-methyl-27,27-dioxo-21,26-dioxa-27λ^6-thia-1,14,15,16-tetraazahexacyclo[20.5.3.1^3,70.1^9,130.0^12,160.0^25,29]dotriaconta-3(32),4,6,9(31),10,12,14,22,24,29-decaen-8-yl]acetic acid]",–,516
3.54,"COc1ccc2cc1CN1Cc3cc(ccc3OS1(=O)=O)OCCCCn1nnc3c(C)c(ccc31)C2CC(=O)O (single isomer, unassigned) [Example 10a, [4-Methoxy-31-methyl-27,27-dioxo-21,26-dioxa-27λ^6-thia-1,14,15,16-tetraazahexacyclo[20.5.3.1^3,70.1^9,130.0^12,160.0^25,29]dotriaconta-3(32),4,6,9(31),10,12,14,22,24,29-decaen-8-yl]acetic acid]",–,58.1
15.1,"COc1ccc2cc1CN1Cc3cc(ccc3OS1(=O)=O)OCCCCn1nnc3c(C)c(ccc31)C2CC(=O)O (single isomer, unassigned) [Example 10b, [4-Methoxy-31-methyl-27,27-dioxo-21,26-dioxa-27λ^6-thia-1,14,15,16-tetraazahexacyclo[20.5.3.1^3,70.1^9,130.0^12,160.0^25,29]dotriaconta-3(32),4,6,9(31),10,12,14,22,24,29-decaen-8-yl]acetic acid]",–,369
0.778,"Cc1ccc2cc1CN1Cc3cc(ccc3OS1(=O)=O)OCCCCCCn1nnc3c(C)c(ccc31)C2CC(=O)O (single isomer, unassigned) [Example 11b, [4,33-Dimethyl-29,29-dioxo-23,28-dioxa-29λ^6-thia-1,14,15,16-tetraazahexacyclo[22.5.3.1^3,70.1^9,130.0^12,160.0^27,31]tetratriaconta-3(34),4,6,9(33),10,12,14,24,26,31-decaen-8-yl]acetic acid]",–,13.1
1.92,"Cc1ccc2cc1CN1Cc3cc(cc(C)c3OS1(=O)=O)OCCCCn1nnc3c(C)c(ccc31)C2CC(=O)O (single isomer, unassigned) [Example 15a, [4,24,31-Trimethyl-27,27-dioxo-21,26-dioxa-27λ^6-thia-1,14,15,16-tetraazahexacyclo[20.5.3.1^3,70.1^9,130.0^12,160.0^25,29]dotriaconta-3(32),4,6,9(31),10,12,14,22,24,29-decaen-8-yl]acetic acid]",–,57.9

# Further lines, the compound ahead of its results:
Structure (SMILES),Kd (Keap1 (A321-C624) (h)) [nM],"EC50 [1, 2] [nM]","EC50 [1, 3] [nM]"
"Cc1ccc2cc1CN1Cc3cc(ccc3OS1(=O)=O)OCCCCCn1nnc3c(C)c(ccc31)C2CC(=O)O (single isomer, unassigned) [Example 1a, [4,32-dimethyl-28,28-dioxo-22,27-dioxa-28λ^6-thia-1,14,15,16-tetraazahexacyclo[21.5.3.1^3,70.1^9,130.0^12,160.0^26,30]tritriaconta-3(33),4,6,9(32),10,12,14,23,25,30-decaen-8-yl]acetic acid]",0.181,–,10.1
"Cc1c2ccc3c1nnn3CCCCOc1ccc3c(c1)CN(Cc1cc(ccc1Cl)C2CC(=O)O)S(=O)(=O)O3 (single isomer, unassigned) [Example 9a, [4-Chloro-31-methyl-27,27-dioxo-21,26-dioxa-27λ^6-thia-1,14,15,16-tetraazahexacyclo[20.5.3.1^3,70.1^9,130.0^12,160.0^25,29]dotriaconta-3(32),4,6,9(31),10,12,14,22,24,29-decaen-8-yl]acetic acid]",2.12,–,48.2
"Cc1c2ccc3c1nnn3CCCCOc1ccc3c(c1)CN(Cc1cc(ccc1Cl)C2CC(=O)O)S(=O)(=O)O3 (single isomer, unassigned) [Example 9b, [4-Chloro-31-methyl-27,27-dioxo-21,26-dioxa-27λ^6-thia-1,14,15,16-tetraazahexacyclo[20.5.3.1^3,70.1^9,130.0^12,160.0^25,29]dotriaconta-3(32),4,6,9(31),10,12,14,22,24,29-decaen-8-yl]acetic acid]",9.99,–,845
"Cc1ccc2cc1CN1Cc3cc(ccc3OS1(=O)=O)OCCCCCCn1nnc3c(C)c(ccc31)C2CC(=O)O (single isomer, unassigned) [Example 11a, [4,33-Dimethyl-29,29-dioxo-23,28-dioxa-29λ^6-thia-1,14,15,16-tetraazahexacyclo[22.5.3.1^3,70.1^9,130.0^12,160.0^27,31]tetratriaconta-3(34),4,6,9(33),10,12,14,24,26,31-decaen-8-yl]acetic acid]",2.42,–,109
"Cc1c2ccc3c1nnn3CCCCOc1ccc3c(c1)CN(Cc1cc(cc(C(F)(F)F)c1)C2CC(=O)O)S(=O)(=O)O3 (single isomer, unassigned) [Example 12a, [31-Methyl-27,27-dioxo-5-(trifluoromethyl)-21,26-dioxa-27λ^6-thia-1,14,15,16-tetraazahexacyclo[20.5.3.1^3,70.1^9,130.0^12,160.0^25,29]dotriaconta-3(32),4,6,9(31),10,12,14,22,24,29-decaen-8-yl]acetic acid]",3070,3160,–
"Cc1c2ccc3c1nnn3CCCCOc1ccc3c(c1)CN(Cc1cc(cc(C(F)(F)F)c1)C2CC(=O)O)S(=O)(=O)O3 (single isomer, unassigned) [Example 12b, [31-Methyl-27,27-dioxo-5-(trifluoromethyl)-21,26-dioxa-27λ^6-thia-1,14,15,16-tetraazahexacyclo[20.5.3.1^3,70.1^9,130.0^12,160.0^25,29]dotriaconta-3(32),4,6,9(31),10,12,14,22,24,29-decaen-8-yl]acetic acid]",2920,–,> 3160
"Cc1ccc2cc1CN1Cc3cc(cc(C)c3OS1(=O)=O)OCCCCn1nnc3c(C)c(ccc31)C2CC(=O)O (single isomer, unassigned) [Example 15b, [4,24,31-Trimethyl-27,27-dioxo-21,26-dioxa-27λ^6-thia-1,14,15,16-tetraazahexacyclo[20.5.3.1^3,70.1^9,130.0^12,160.0^25,29]dotriaconta-3(32),4,6,9(31),10,12,14,22,24,29-decaen-8-yl]acetic acid]",4.41,–,381
"COc1cc2cc3c1OS(=O)(=O)N(Cc1cc(ccc1C)C(CC(=O)O)c1ccc4c(nnn4CCCCO2)c1C)C3 (single isomer, unassigned) [Example 16a, [24-Methoxy-4,31-dimethyl-27,27-dioxo-21,26-dioxa-27λ^6-thia-1,14,15,16-tetraazahexacyclo[20.5.3.1^3,70.1^9,130.0^12,160.0^25,29]dotriaconta-3(32),4,6,9(31),10,12,14,22,24,29-decaen-8-yl]acetic acid]",4.03,–,871
